# Assay results published in patent US8871681B2, “Herbicidal compositions comprising 4-amino-3-chloro-5-fluoro-6-(4-chloro-2-fluoro-3-methoxyphenyl) pyridine-2-carboxylic acid or a derivative thereof and certain sulfonylureas” (Dow AgroSciences LLC, priority 2012, dated 2014).
# Columns and labels:
# [1] = test system: BRAPP (Brachiaria platyphylla, broadleaf signalgrass); experiment: Postemergence foliar-applied weed control, direct seeded rice, greenhouse (Example I); assay type: in vivo, Brachiaria platyphylla (Griseb.) Nash; details: Urochloa platyphylla, post-emergence, read-out: Visual Weed Control (%) Obs
# Outline: (§1)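 Greenhouse-grown plants (14 h photoperiod, 29/26 °C day/night) at first to fourth true leaf stage sprayed overhead at 187 L/ha with Compound A (acid equivalent basis) alone or mixed with sulfonylurea ALS inhibitors (active ingredient basis). Final spray contained 1.25% v/v crop oil concentrate; controls received solvent blank.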
# [2] = test system: LEFCH (Leptochloa chinensis, Chinese sprangletop); experiment: as above; assay type: in vivo, Leptochloa chinensis (L.) Nees; details: Dinebra chinensis, post-emergence, read-out: Visual Weed Control (%) Obs
# Outline: as §1
SMILES,"pest or weed control at 7.5 g/ha ([1]; 480 h, 20 DAA, 7.5 gai/ha) [%]","pest or weed control at 15 g/ha ([1]; 480 h, 20 DAA, 15 gai/ha) [%]","pest or weed control at 0.05 g/ha ([1]; 504 h, 21 DAA, 0.05 gai/ha) [%]","pest or weed control at 0.1 g/ha ([1]; 504 h, 21 DAA, 0.1 gai/ha) [%]","pest or weed control at 0.2 g/ha ([1]; 504 h, 21 DAA, 0.2 gai/ha) [%]","pest or weed control at 1.7 g/ha ([1]; 528 h, 22 DAA, 1.7 gai/ha) [%]","pest or weed control at 0.05 g/ha ([2]; 504 h, 21 DAA, 0.05 gai/ha) [%]","pest or weed control at 0.1 g/ha ([2]; 504 h, 21 DAA, 0.1 gai/ha) [%]","pest or weed control at 1.7 g/ha ([2]; 528 h, 22 DAA, 1.7 gai/ha) [%]","pest or weed control at 5 g/ha ([2]; 528 h, 22 DAA, 5 gai/ha) [%]"
"COC(=O)c1ccccc1S(=O)(=O)NC(=O)Nc1nc(C)nc(OC)n1 [Metsulfuron-methyl, methyl 2-[[[[(4-methoxy-6-methyl-1,3,5-triazin-2-yl)amino]carbonyl]amino]sulfonyl]benzoate, reference compound]",0,20,–,–,–,–,–,–,–,–
"COCC(=O)OC(c1ncccc1S(=O)(=O)NC(=O)Nc1nc(OC)cc(OC)n1)C(C)F (stereo not shown) [Flucetosulfuron, 1-[3-[[[[(4,6-dimethoxy-2-pyrimidinyl)amino]carbonyl]amino]sulfonyl]-2-pyridinyl]-2-fluoropropyl 2-methoxyacetate]",–,–,0,0,0,0,0,0,0,0
